Experimental data as given in ChEMBL document CHEMBL5385864, “Pose, duplicate, then elaborate: Steps towards increased affinity for inhibitors targeting the specificity surface of the Pim-1 kinase” (Eur J Med Chem, 2023).
Activity calls are given as the source filed them. The calls are words filed in the database; no cut-off is given here.

Key:
[1] = molecular target: T1, Serine/threonine-protein kinase pim-1 (Homo sapiens, UniProt P11309); assay: Inhibition of Pim-1 activity (unknown origin) at 100 uM by Eurofins radiometric assay
[2] = molecular target: T1, Serine/threonine-protein kinase pim-1; assay: Inhibition of Pim-1 activity (unknown origin) assessed as residual activity at 100 uM by Eurofins radiometric assay relative to control
[3] = molecular target: T1, Serine/threonine-protein kinase pim-1; assay: Inhibition of Pim-1 activity (unknown origin) by Eurofins radiometric assay
[4] = molecular target: T1, Serine/threonine-protein kinase pim-1; assay: Inhibition of Pim-1 in human NCE-G 55T2 cells assessed as reduction in p21 phosphorylation at Thr145 residue at 0.3 mM incubated for 24 hrs by Western blot analysis; format: cell-based
[5] = test system: HCT-116; assay: Cytotoxicity against human HCT-116 cells assessed as inhibition of cell growth incubated for 3 days by WST-8 assay; details: HCT-116, 72 h
[6] = Cytotoxicity against human NCE-G 55T2 cells assessed as inhibition of cell growth incubated for 3 days by WST-8 assay; details: NCE-G 55T2, 72 h

| Structure (SMILES) | inhibition [1] | Activity [2] | IC50 [3] | also measured |
| --- | --- | --- | --- | --- |
| COC(=O)c1ccc(/C=C2/C(=O)Nc3cc(N)ccc32)cc1 | Active | – | – | – |
| Cc1cc(O)cc2occ(Cc3ccc(C(=O)O)cc3)c12 | – | < 50% | – | – |
| O=C(O)c1ccc(Cc2coc3cc(O)ccc23)cc1 | – | < 50% | 26.4 µM | – |
| O=C1Nc2ccccc2/C1=C\c1ccc(C(=O)O)cc1 | – | – | – | IC50 [5]: 200 µM; IC50 [6]: 100 µM |

Further lines, with some results ahead:

| inhibition [1] | Activity [2] | IC50 [3] | Structure (SMILES) | also measured |
| --- | --- | --- | --- | --- |
| – | – | 0.6 µM | Nc1ccc2c(c1)NC(=O)/C2=C/c1ccc(C(=O)O)cc1 | inhibition [4]: Active |
| Active | – | – | Nc1ccc2c(c1)NC(=O)C2Cc1ccc(C(=O)O)cc1 (centres undefined) | – |
